Laboratory results: PubChem BioAssay (NCI)
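Five concentrations, 48 hours, 96-well plates. TGI: total growth inhibition.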

Legend:
Assay in all cases: growth of human tumour cells (NCI), 48 h
[1] = tested on: HL-60(TB) leukemia
[2] = tested on: UACC-257 melanoma
[3] = tested on: SK-OV-3 ovarian
[4] = tested on: SR leukemia
[5] = tested on: RPMI-8226 leukemia
[6] = tested on: LOX IMVI melanoma
[7] = tested on: OVCAR-5 ovarian
[8] = tested on: NCI-H23 lung
[9] = tested on: OVCAR-8 ovarian
[10] = tested on: CAKI-1 renal
[11] = tested on: SN12C renal
[12] = tested on: IGROV1 ovarian
[13] = tested on: SF-295 CNS
[14] = tested on: NCI-H460 lung
[15] = tested on: SK-MEL-2 melanoma
[16] = tested on: MALME-3M melanoma
[17] = tested on: SNB-19 CNS
[18] = tested on: M14 melanoma
[19] = tested on: HCT-116 colon
[20] = tested on: UACC-62 melanoma
[21] = tested on: NCI-H226 lung
[22] = tested on: CCRF-CEM leukemia
[23] = tested on: BT-549 breast
[24] = tested on: SK-MEL-5 melanoma
[25] = tested on: HOP-62 NSCLC
[26] = tested on: HCC-2998 colon
[27] = tested on: TK-10 renal
[28] = tested on: T-47D breast
[29] = tested on: K-562 leukemia
[30] = tested on: SF-268 CNS
[31] = tested on: MOLT-4 leukemia
[32] = tested on: HOP-92 NSCLC
[33] = tested on: EKVX NSCLC
[34] = tested on: U251 CNS
[35] = tested on: SF-539 CNS
[36] = tested on: MDA-MB-435
[37] = tested on: MDA-MB-231 breast
[38] = tested on: SW-620 colon
[39] = tested on: A549 NSCLC
[40] = tested on: NCI/ADR-RES ovarian
[41] = tested on: HCT-15 colon
[42] = tested on: SK-MEL-28 melanoma
[43] = tested on: MCF7 breast
[44] = tested on: HS 578T breast
[45] = tested on: RXF 393 renal
[46] = tested on: NCI-H522 lung
[47] = tested on: ACHN renal
[48] = tested on: 786-0 renal
[49] = tested on: HT29 colon
[50] = tested on: KM12 colon
[51] = tested on: OVCAR-4 ovarian
[52] = tested on: SNB-75 CNS
[53] = tested on: OVCAR-3 ovarian
[54] = tested on: MDA-N
[55] = tested on: UO-31 renal
[56] = tested on: A498 renal
[57] = tested on: PC-3 prostate
[58] = tested on: COLO 205 colon
[59] = tested on: DU-145 prostate

Cc1cc(Cl)ccc1NC(=O)/C(Cc1nc2ccc(C(=O)c3ccccc3)cc2[nH]c1=O)=N/NC(=O)c1ccncc1
TGI [1]: > 100 µM
TGI [2]: > 100 µM
TGI [3]: > 100 µM
TGI [4]: > 100 µM
TGI [5]: > 100 µM
TGI [6]: > 100 µM
TGI [7]: > 100 µM
TGI [8]: > 100 µM
TGI [9]: > 100 µM
TGI [10]: > 100 µM
TGI [11]: > 100 µM
TGI [12]: > 100 µM
TGI [13]: > 100 µM
TGI [14]: > 100 µM
TGI [15]: > 100 µM
TGI [16]: > 100 µM
TGI [17]: > 100 µM
TGI [18]: > 100 µM
TGI [19]: > 100 µM
TGI [20]: > 100 µM
TGI [21]: > 100 µM
TGI [22]: > 100 µM
TGI [23]: > 100 µM
TGI [24]: > 100 µM
TGI [25]: > 100 µM
TGI [26]: > 100 µM
TGI [27]: > 100 µM
TGI [28]: > 100 µM
TGI [29]: > 100 µM
TGI [30]: > 100 µM
TGI [31]: > 100 µM
TGI [32]: > 100 µM
TGI [33]: > 100 µM
TGI [34]: > 100 µM
TGI [35]: > 100 µM
TGI [36]: > 100 µM
TGI [37]: > 100 µM
TGI [38]: > 100 µM
TGI [39]: > 100 µM
TGI [40]: > 100 µM
TGI [41]: > 100 µM
TGI [42]: > 100 µM
TGI [43]: > 100 µM
TGI [44]: > 100 µM
TGI [45]: > 100 µM
TGI [46]: > 100 µM
TGI [47]: > 100 µM
TGI [48]: > 100 µM
TGI [49]: > 100 µM
TGI [50]: > 100 µM
TGI [51]: > 100 µM
TGI [52]: > 100 µM
TGI [53]: > 100 µM
TGI [54]: > 100 µM
TGI [55]: > 100 µM
TGI [56]: > 100 µM
TGI [57]: > 100 µM

COc1ccc(-c2cc(-c3ccccc3)c3c(n2)-c2ccccc2NC(=O)C3)cc1
TGI [1]: > 100 µM
TGI [2]: > 100 µM
TGI [3]: > 100 µM
TGI [5]: > 100 µM
TGI [6]: > 100 µM
TGI [7]: > 100 µM
TGI [8]: > 100 µM
TGI [9]: 30.1 µM
TGI [10]: > 100 µM
TGI [11]: > 100 µM
TGI [12]: 52.6 µM
TGI [13]: > 100 µM
TGI [14]: > 100 µM
TGI [15]: > 100 µM
TGI [16]: 94.1 µM
TGI [17]: > 100 µM
TGI [18]: > 100 µM
TGI [19]: > 100 µM
TGI [20]: > 100 µM
TGI [21]: > 100 µM
TGI [58]: > 100 µM
TGI [23]: > 100 µM
TGI [24]: > 100 µM
TGI [25]: > 100 µM
TGI [26]: > 100 µM
TGI [27]: > 100 µM
TGI [28]: > 100 µM
TGI [29]: 8.64 µM
TGI [30]: > 100 µM
TGI [32]: > 100 µM
TGI [33]: > 100 µM
TGI [34]: > 100 µM
TGI [35]: > 100 µM
TGI [36]: > 100 µM
TGI [37]: > 100 µM
TGI [38]: > 100 µM
TGI [39]: > 100 µM
TGI [40]: > 100 µM
TGI [41]: > 100 µM
TGI [42]: > 100 µM
TGI [43]: > 100 µM
TGI [44]: 30.5 µM
TGI [45]: > 100 µM
TGI [47]: > 100 µM
TGI [48]: > 100 µM
TGI [49]: > 100 µM
TGI [50]: > 100 µM
TGI [51]: > 100 µM
TGI [52]: 37.8 µM
TGI [53]: > 100 µM
TGI [54]: > 100 µM
TGI [55]: > 100 µM
TGI [59]: > 100 µM
TGI [56]: > 100 µM
TGI [57]: > 100 µM

Nc1c(O)c2c(c(O)c1Cl)C(=O)C=CC2=O
TGI [1]: 6.13 µM
TGI [2]: 3.3 µM
TGI [3]: > 60.7 µM
TGI [5]: 44.8 µM
TGI [6]: 16.4 µM
TGI [7]: 11.4 µM
TGI [8]: 4.89 µM
TGI [9]: 14 µM
TGI [10]: 32.2 µM
TGI [11]: 13.7 µM
TGI [12]: 14 µM
TGI [13]: 6.94 µM
TGI [14]: 4.64 µM
TGI [15]: 23.8 µM
TGI [16]: 0.894 µM
TGI [17]: 14.2 µM
TGI [18]: 6.08 µM
TGI [19]: 7.09 µM
TGI [20]: 3.05 µM
TGI [21]: 34.3 µM
TGI [58]: 3.32 µM
TGI [22]: > 100 µM
TGI [23]: 3.38 µM
TGI [24]: 2.04 µM
TGI [25]: 15.9 µM
TGI [26]: 11.9 µM
TGI [27]: 37 µM
TGI [28]: 21.5 µM
TGI [29]: > 60.6 µM
TGI [30]: 26.3 µM
TGI [31]: > 87.6 µM
TGI [32]: 31.3 µM
TGI [33]: 24.4 µM
TGI [34]: 15.8 µM
TGI [35]: 7.76 µM
TGI [36]: 3.16 µM
TGI [37]: 19.7 µM
TGI [38]: 9.93 µM
TGI [39]: 5.68 µM
TGI [40]: > 32.6 µM
TGI [41]: > 36.8 µM
TGI [42]: 8.68 µM
TGI [43]: 3.51 µM
TGI [44]: 37.1 µM
TGI [45]: 21 µM
TGI [46]: 28 µM
TGI [47]: 18.8 µM
TGI [48]: 25.5 µM
TGI [49]: 8.21 µM
TGI [50]: 13.3 µM
TGI [51]: 16.2 µM
TGI [52]: 12.6 µM
TGI [53]: 6.02 µM
TGI [54]: 3.24 µM
TGI [55]: 24.5 µM
TGI [59]: 5.3 µM
TGI [56]: 27.3 µM
TGI [57]: 14.8 µM
